{"source": "patent US9400249B2", "about": "“Detection of biopolymer interactions, cancer cells, and pathogens using split-supercharged GFP” (Colorado State University Research Foundation, priority 2012, dated 2016)", "origin": "cited, not measured here", "key": {"Hepatocellular carcinoma": {"target": "Hepatocellular carcinoma", "details": "Targeted cell type: Hepatocellular carcinoma; read-out: Approximate affinity (Kd in nM)"}, "Head and neck cancer": {"target": "Head and neck cancer", "details": "Targeted cell type: Head and neck cancer; read-out: Approximate affinity (Kd in nM)"}, "[1]": {"tested_on": "PC-3 prostate cancer cells", "details": "previously reported"}, "[2]": {"target": "Breast cancer, Neuroblastoma", "details": "Targeted cell type: Breast cancer, read-out: Approximate affinity (Kd in nM)"}, "Cholangiocarcinoma": {"target": "Cholangiocarcinoma", "details": "Targeted cell type: Cholangiocarcinoma; read-out: Approximate affinity (Kd in nM)"}, "Osteosarcoma": {"target": "Osteosarcoma", "details": "Targeted cell type: Osteosarcoma; read-out: Approximate affinity (Kd in nM)"}}}
{"sequence": "AGKGTPSLETTP [cell targeting peptide, targeted cell type hepatocellular carcinoma]", "values": [{"measurement": "Kd", "setting": "Hepatocellular carcinoma", "result": "~50", "unit": "nM"}]}
{"sequence": "TSPLNIHNGQKL [cell targeting peptide, targeted cell type head and neck cancer]", "values": [{"measurement": "Kd", "setting": "Head and neck cancer", "result": "~1000", "unit": "nM"}]}
{"sequence": "FRPNRAQDYNTN", "values": [{"measurement": "penetration of PC-3 prostate cancer cells", "setting": "[1]", "result": "does not appreciably penetrate"}, {"measurement": "binding to PC-3 prostate cancer cells", "setting": "Prostate cancer; PC-3 prostate cancer cells, previously reported", "result": "potently binds"}, {"measurement": "Kd", "setting": "Prostate cancer; Targeted cell type: Prostate cancer, read-out: Approximate affinity (Kd in nM)", "result": "~180", "unit": "nM"}]}
{"sequence": "VPWMEPAYQRFL [cell targeting peptide, targeted cell type breast cancer, neuroblastoma]", "values": [{"measurement": "Kd", "setting": "[2]", "result": "50000 to 80000", "unit": "nM"}]}
{"sequence": "TPVLETPKLLLW [cell targeting peptide, targeted cell type cholangiocarcinoma]", "values": [{"measurement": "Kd", "setting": "Cholangiocarcinoma", "result": "~500", "unit": "nM"}]}
{"sequence": "ASGALSPSRLDT [cell targeting peptide, targeted cell type osteosarcoma]", "values": [{"measurement": "Kd", "setting": "Osteosarcoma", "result": "~2000", "unit": "nM"}]}
